Laboratory results published in ChEMBL document CHEMBL4477252, “Optimization of microtubule affinity regulating kinase (MARK) inhibitors with improved physical properties” (Bioorg Med Chem Lett, 2016).

Key:
[1] = target: Tyrosine-protein kinase BTK (Homo sapiens, UniProt Q06187); test: Inhibition of full-length recombinant human His-tagged BTK expressed in baculovirus expression system by Z'-LYTE assay
CDK9/cyclin T1 = CDK9/cyclin T1 (Homo sapiens, UniProt P50750); test: Inhibition of full-length recombinant human His-tagged CDK9/cyclin T1 expressed in baculovirus expression system by Adapta assay
CDK9/cyclin T1, sequence (O60563 whole entry, canonical isoform): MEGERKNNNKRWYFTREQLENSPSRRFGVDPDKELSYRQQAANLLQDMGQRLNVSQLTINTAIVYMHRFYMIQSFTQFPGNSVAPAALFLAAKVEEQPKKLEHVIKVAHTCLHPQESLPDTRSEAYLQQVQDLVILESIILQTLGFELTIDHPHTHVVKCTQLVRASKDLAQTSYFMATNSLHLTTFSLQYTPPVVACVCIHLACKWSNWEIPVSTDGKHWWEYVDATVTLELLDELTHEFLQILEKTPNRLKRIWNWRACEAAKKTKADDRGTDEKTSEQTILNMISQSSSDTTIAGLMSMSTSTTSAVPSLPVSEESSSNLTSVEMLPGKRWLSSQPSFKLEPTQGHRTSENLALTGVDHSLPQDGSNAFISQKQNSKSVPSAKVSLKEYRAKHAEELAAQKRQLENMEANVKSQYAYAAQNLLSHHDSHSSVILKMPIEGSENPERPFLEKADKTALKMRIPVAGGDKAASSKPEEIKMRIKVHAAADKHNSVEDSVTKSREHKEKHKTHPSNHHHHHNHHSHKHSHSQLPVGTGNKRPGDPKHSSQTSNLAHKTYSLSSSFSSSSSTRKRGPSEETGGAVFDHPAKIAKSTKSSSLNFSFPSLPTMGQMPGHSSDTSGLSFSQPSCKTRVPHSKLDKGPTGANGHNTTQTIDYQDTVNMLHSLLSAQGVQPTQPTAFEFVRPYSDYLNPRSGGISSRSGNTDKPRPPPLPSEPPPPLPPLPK
CDK9/cyclin T1, sequence (P50750 whole entry, canonical isoform): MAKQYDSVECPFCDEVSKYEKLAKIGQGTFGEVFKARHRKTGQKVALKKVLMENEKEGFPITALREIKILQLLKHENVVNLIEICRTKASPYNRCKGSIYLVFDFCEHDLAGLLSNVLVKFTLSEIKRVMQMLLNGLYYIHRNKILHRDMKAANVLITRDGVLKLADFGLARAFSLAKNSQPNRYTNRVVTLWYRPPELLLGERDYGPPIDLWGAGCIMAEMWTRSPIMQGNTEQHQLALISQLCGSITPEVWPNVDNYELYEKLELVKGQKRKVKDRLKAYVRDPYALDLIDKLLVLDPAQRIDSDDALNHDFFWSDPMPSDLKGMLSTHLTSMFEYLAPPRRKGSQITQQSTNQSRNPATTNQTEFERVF

[2] = target: Casein kinase I isoform alpha (Homo sapiens, UniProt P48729); test: Inhibition of recombinant human GST-tagged cytoplasmic CSNK1A1 expressed in baculovirus expression system by Z'-LYTE assay
Ephrin type-A receptor 3 = target: T1, Ephrin type-A receptor 3 (Homo sapiens, UniProt P29320); test: Inhibition of recombinant human His-tagged cytoplasmic EPHA3 expressed in baculovirus expression system by LanthaScreen assay
T1 sequence (P29320 whole entry): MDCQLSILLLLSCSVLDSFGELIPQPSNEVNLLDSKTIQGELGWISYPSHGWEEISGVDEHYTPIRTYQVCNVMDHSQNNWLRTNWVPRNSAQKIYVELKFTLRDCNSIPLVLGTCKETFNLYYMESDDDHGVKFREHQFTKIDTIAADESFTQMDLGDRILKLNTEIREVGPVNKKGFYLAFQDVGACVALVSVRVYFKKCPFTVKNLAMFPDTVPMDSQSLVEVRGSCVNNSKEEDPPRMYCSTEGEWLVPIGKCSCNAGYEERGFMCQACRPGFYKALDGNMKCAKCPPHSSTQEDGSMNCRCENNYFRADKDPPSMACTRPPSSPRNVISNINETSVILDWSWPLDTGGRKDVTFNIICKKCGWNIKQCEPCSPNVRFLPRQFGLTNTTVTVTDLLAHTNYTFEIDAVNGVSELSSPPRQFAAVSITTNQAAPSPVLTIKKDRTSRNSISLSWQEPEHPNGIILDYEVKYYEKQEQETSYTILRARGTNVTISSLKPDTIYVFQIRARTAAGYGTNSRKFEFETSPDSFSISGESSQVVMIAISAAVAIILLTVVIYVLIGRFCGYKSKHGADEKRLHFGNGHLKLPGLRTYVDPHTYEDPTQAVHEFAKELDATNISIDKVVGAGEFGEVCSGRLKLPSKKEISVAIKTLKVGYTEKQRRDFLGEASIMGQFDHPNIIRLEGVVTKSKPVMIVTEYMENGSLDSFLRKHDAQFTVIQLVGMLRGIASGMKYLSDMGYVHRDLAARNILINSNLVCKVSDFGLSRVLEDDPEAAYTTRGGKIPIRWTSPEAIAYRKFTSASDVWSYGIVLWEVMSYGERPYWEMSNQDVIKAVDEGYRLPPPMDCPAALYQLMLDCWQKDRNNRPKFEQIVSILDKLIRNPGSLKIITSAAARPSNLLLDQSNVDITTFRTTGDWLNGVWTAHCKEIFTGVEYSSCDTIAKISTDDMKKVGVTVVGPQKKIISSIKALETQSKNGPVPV

[3] = target: Tyrosine-protein kinase HCK (Homo sapiens, UniProt P08631); test: Inhibition of full-length human N-terminal GST-tagged HCK expressed in baculovirus expression system by Z'-LYTE assay
[4] = target: T2, Inhibitor of nuclear factor kappa-B kinase subunit beta (Homo sapiens, UniProt O14920); test: Inhibition of full-length recombinant human GST-tagged IKK-beta expressed in baculovirus expression system by Z'-LYTE assay
T2 sequence (O14920 whole entry): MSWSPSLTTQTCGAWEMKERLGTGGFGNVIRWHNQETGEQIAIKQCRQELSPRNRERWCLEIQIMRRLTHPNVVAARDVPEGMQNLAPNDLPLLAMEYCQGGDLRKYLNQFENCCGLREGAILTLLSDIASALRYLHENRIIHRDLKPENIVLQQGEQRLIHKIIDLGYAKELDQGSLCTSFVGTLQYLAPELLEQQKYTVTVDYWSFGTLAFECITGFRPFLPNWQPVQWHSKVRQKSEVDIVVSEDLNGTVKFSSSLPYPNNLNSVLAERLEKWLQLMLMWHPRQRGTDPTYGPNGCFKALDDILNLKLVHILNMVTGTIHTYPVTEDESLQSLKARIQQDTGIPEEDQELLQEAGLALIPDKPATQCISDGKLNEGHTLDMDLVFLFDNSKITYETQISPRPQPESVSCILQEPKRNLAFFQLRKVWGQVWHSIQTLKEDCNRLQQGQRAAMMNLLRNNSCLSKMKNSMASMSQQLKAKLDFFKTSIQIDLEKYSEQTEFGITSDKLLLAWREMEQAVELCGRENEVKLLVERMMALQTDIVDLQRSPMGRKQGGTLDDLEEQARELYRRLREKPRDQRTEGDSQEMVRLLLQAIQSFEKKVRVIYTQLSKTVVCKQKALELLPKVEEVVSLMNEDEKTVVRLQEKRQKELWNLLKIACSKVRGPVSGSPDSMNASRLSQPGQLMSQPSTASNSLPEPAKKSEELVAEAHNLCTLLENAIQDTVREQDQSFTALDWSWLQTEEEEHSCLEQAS

[5] = target: Dual specificity mitogen-activated protein kinase kinase 1 (Homo sapiens, UniProt Q02750); test: Inhibition of full-length recombinant human His-tagged MAP2K1 expressed in baculovirus expression system by LanthaScreen assay
Dual specificity mitogen-activated protein kinase kinase 1, sequence (Q02750 whole entry): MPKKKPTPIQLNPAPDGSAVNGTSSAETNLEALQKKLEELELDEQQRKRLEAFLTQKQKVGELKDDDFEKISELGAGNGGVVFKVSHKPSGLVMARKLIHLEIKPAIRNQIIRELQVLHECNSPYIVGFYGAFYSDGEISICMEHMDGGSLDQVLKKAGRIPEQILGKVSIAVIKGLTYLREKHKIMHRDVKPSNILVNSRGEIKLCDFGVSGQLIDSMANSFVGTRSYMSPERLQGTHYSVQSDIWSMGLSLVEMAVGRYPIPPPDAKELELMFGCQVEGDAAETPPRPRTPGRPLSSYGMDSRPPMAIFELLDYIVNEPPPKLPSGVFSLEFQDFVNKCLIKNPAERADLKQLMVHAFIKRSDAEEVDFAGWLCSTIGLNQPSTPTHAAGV

[6] = target: Serine/threonine-protein kinase Nek4 (Homo sapiens, UniProt P51957); test: Inhibition of full-length recombinant human GST-tagged NEK4 expressed in baculovirus expression system by Z'-LYTE assay
Serine/threonine-protein kinase Nek4, sequence (P51957 whole entry): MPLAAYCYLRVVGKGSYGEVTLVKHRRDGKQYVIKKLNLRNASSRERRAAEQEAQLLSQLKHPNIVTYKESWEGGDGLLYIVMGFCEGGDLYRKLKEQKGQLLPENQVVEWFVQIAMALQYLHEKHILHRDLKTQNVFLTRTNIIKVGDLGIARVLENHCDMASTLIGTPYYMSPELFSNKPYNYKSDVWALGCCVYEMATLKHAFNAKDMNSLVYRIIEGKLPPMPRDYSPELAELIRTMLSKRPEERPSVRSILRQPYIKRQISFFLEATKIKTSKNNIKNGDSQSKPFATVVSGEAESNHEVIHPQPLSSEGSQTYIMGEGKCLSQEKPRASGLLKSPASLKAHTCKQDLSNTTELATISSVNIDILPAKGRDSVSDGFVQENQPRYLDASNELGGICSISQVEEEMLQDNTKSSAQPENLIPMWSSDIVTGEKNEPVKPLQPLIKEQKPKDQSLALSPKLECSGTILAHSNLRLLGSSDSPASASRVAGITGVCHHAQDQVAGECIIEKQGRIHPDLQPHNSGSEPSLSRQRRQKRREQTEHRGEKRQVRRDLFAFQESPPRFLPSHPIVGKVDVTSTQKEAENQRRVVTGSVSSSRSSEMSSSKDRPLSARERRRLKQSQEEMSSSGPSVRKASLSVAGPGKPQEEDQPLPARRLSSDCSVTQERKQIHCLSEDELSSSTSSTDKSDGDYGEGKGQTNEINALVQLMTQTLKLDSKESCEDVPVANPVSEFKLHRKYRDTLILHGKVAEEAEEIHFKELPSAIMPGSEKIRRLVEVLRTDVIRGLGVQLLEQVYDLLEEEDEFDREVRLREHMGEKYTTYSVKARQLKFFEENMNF

[7] = target: Serine/threonine-protein kinase PAK 1 (Homo sapiens, UniProt Q13153); test: Inhibition of full-length recombinant human GST-tagged PAK1 expressed in baculovirus expression system by Z'-LYTE assay
Serine/threonine-protein kinase PAK 1, sequence (Q13153 whole entry, the tested form may be a part): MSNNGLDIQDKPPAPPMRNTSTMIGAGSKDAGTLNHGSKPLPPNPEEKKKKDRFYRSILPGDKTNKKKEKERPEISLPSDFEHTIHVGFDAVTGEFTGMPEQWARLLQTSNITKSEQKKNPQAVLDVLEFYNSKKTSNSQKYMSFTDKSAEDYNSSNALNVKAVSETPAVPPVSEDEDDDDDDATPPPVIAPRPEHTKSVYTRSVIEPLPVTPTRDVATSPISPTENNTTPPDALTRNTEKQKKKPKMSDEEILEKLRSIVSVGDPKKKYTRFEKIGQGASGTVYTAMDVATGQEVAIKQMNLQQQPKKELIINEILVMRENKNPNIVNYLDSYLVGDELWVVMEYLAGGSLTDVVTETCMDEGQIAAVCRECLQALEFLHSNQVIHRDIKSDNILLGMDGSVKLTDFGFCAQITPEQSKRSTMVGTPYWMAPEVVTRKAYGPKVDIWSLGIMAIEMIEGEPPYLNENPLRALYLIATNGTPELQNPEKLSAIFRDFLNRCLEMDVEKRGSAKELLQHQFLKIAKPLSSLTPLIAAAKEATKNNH

[8] = target: PAS domain-containing serine/threonine-protein kinase (Homo sapiens, UniProt Q96RG2); test: Inhibition of recombinant human GST-tagged PASK catalytic domain expressed in baculovirus expression system by Z'-LYTE assay
PAS domain-containing serine/threonine-protein kinase, sequence (Q96RG2 whole entry, the tested form may be a part): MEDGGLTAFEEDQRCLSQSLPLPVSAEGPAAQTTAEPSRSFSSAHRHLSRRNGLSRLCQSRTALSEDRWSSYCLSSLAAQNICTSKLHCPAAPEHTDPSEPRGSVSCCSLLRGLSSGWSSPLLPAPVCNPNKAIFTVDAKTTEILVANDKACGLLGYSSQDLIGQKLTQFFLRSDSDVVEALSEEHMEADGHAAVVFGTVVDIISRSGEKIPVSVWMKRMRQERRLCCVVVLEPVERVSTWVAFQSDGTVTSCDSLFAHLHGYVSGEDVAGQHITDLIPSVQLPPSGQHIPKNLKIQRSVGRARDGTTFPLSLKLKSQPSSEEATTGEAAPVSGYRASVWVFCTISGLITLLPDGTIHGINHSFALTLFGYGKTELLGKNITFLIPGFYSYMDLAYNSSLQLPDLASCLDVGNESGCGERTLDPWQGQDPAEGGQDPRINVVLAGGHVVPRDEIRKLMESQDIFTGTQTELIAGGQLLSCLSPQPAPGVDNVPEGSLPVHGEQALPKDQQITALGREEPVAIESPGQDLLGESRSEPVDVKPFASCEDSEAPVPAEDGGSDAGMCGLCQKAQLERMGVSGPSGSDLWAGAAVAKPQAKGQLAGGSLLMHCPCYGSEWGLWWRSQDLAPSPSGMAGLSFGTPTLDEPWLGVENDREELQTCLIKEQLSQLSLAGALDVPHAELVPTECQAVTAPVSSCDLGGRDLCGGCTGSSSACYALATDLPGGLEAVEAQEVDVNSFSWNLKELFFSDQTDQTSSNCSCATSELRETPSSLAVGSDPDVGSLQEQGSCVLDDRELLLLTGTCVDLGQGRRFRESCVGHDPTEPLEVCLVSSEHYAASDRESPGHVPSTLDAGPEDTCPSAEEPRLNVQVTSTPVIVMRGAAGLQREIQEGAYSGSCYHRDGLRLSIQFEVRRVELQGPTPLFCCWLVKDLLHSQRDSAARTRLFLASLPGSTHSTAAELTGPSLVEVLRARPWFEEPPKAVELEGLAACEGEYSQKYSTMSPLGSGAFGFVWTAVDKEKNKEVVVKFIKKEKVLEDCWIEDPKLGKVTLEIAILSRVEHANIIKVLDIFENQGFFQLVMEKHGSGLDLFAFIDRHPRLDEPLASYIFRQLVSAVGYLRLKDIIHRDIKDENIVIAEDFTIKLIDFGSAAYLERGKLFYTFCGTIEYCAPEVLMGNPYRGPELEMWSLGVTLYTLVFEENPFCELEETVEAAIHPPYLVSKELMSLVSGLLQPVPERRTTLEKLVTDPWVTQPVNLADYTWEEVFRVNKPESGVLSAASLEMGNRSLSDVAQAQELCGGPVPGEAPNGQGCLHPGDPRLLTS

[9] = target: Protein kinase C theta type (Homo sapiens, UniProt Q04759); test: Inhibition of full-length recombinant human His-tagged PRKCQ expressed in baculovirus expression system by Z'-LYTE assay
[10] = target: Ribosomal protein S6 kinase alpha-3 (Homo sapiens, UniProt P51812); test: Inhibition of full-length recombinant human His-tagged RPS6KA3 expressed in baculovirus expression system by Z'-LYTE assay
Ribosomal protein S6 kinase alpha-3, sequence (P51812 whole entry, the tested form may be a part): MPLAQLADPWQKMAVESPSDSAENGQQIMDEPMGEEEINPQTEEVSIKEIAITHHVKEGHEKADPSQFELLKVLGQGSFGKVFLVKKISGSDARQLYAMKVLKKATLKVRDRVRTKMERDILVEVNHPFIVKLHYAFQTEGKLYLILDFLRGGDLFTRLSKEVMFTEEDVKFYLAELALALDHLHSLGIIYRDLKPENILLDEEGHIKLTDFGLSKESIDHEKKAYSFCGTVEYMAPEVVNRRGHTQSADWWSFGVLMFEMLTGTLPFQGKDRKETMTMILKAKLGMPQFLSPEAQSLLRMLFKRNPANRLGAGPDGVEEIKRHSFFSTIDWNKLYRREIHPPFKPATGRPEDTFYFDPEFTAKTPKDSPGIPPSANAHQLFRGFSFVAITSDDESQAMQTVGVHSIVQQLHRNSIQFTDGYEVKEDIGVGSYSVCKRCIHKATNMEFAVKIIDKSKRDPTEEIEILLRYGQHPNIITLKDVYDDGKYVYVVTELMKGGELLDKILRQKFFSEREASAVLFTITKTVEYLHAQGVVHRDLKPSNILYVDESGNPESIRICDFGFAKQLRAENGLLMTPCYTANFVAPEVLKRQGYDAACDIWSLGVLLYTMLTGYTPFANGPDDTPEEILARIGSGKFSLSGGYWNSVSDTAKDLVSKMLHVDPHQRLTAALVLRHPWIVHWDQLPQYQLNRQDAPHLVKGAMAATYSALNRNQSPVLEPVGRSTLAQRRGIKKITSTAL

[11] = target: Non-receptor tyrosine-protein kinase TYK2 (Homo sapiens, UniProt P29597); test: Inhibition of recombinant human N-terminal GST-tagged cytoplasmic TYK2 (833 to 1187 residues) catalytic domain expressed in baculovirus expression system by Z'-LYTE assay

Compound | IC50 [1] | IC50 (CDK9/cyclin T1) | IC50 [2] | IC50 (Ephrin type-A receptor 3) | IC50 [3] | IC50 [4] | IC50 [5] | IC50 [6] | IC50 [7] | IC50 [8] | IC50 [9] | IC50 [10] | IC50 [11]
Cn1cc(-c2cnc3c(-c4csc(C(=O)N[C@@H]5CCCC[C@@H]5N)c4)cnn3c2)cn1 (racemic) | < 1 nM | 12 nM | 2100 nM | 22 nM | 2.8 nM | > 10000 nM | 120 nM | 48 nM | 24 nM | 1500 nM | 270 nM | < 1 nM | 52 nM
Cn1cc(-c2cnc3c(-c4csc(C(=O)NCC(F)(F)F)c4)cnn3c2)cn1 | 360 nM | 35 nM | 630 nM | 52 nM | 33 nM | > 100000 nM | 12000 nM | 240 nM | 6200 nM | > 100000 nM | > 100000 nM | 380 nM | 92 nM
Cc1sc(C(=O)N[C@@H]2[C@H](N)CCCC2(F)F)cc1-c1cnn2cc(Cl)cnc12 | 13000 nM | 240 nM | 18000 nM | > 100000 nM | 6400 nM | 31000 nM | 1100 nM | 480 nM | 2100 nM | 1400 nM | 8700 nM | 47 nM | 10000 nM
O=C(NCC(F)(F)F)c1cc(-c2cnn3cc(-c4ccc(OCCN5CCCCC5)cc4)cnc23)cs1 | 290 nM | 45 nM | 230 nM | 180 nM | 30 nM | 55000 nM | 7200 nM | 160 nM | 8300 nM | 37000 nM | 6600 nM | 260 nM | 75 nM
